From article PMC10435442, “Developing multitarget coumarin based anti-breast cancer agents: synthesis and molecular modeling study” (Scientific Reports, 2023)
Values after ≈ are worked out from the molar mass of the structure shown. Values joined by “and” are separate entries in the source; they are usually repeats but may differ in a detail not shown here. Equal entries are not always repeated. Where two headings read alike, the source gives them in different places. Marks after values point to notes of the source that are not given here. One block for each compound: values may come before it.

Columns and labels:
in vitro = conditions: human, MCF-10A cells (nonmalignant breast)
MCF-10A = assay: MTT cytotoxicity assay, nonmalignant MCF-10A; conditions: read-out: MCF-10A IC50; MTT, nonmalignant MCF-10A;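 further: MTT assay with absorbance read at 570 nm after 48 h exposure of cells to serial compound concentrations at 37 °C, testing selectivity against nonmalignant versus cancer cells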
EGFR = EGFR (Homo sapiens, UniProt P00533); assay: In vitro EGFR enzyme inhibition assay (ELISA); conditions: for EGFR %inh: lab report 01-11-2021
MCF-7 [1] = assay: MTT cytotoxicity assay, MCF-7; conditions: for IC50: Homo sapiens
MDA-MB-231 [2] = assay: MTT cytotoxicity assay, MDA-MB-231; conditions: for IC50: Homo sapiens; for % viability: MDA
aromatase (ARO) = target: T1, aromatase (ARO) (Homo sapiens, UniProt P11511); assay: In vitro aromatase (ARO) enzyme inhibition assay (ELISA)
T1 sequence (P11511 1-503): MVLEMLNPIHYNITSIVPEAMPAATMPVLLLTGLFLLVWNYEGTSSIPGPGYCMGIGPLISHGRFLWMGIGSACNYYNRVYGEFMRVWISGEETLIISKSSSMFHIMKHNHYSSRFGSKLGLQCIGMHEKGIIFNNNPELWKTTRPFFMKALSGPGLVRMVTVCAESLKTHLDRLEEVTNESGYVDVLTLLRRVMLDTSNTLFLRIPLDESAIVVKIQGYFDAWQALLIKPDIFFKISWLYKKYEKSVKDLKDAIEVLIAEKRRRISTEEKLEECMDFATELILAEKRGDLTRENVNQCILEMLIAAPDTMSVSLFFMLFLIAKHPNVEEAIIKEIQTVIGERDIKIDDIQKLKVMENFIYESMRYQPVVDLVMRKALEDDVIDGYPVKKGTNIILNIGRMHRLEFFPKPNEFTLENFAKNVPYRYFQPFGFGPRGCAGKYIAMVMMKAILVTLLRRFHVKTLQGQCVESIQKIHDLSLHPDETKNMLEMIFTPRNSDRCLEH

Bax = Bax level (ELISA) in treated cells; type: cell-based, human
MCF-7 [3] = assay: Annexin V-FITC/PI dual staining apoptosis assay, MCF-7; type: cell-based, human
Caspase-9 = Caspase-9 level (ELISA) in treated cells; type: cell-based, human
Bcl-2 = Bcl-2 level (ELISA) in treated cells; type: cell-based, human
MCF-7 [4] = assay: DNA flow cytometric cell cycle analysis, MCF-7; type: cell-based, human
MDA-MB-231 [5] = assay: Annexin V-FITC/PI dual staining apoptosis assay, MDA-MB-231; type: cell-based, human
MDA-MB-231 [6] = assay: DNA flow cytometric cell cycle analysis, MDA-MB-231; type: cell-based, human
[7] = EGFR IC50, lab report 01-11-2021, 10 compounds
[8] = MCF7, read-out: cytotoxicity_IC50 mcf7
[9] = MDA-MB-231, read-out: MDA-MBA-231 IC50
[10] = MDA-MB-231, read-out: cytotoxicity_IC50 MDA
[11] = MCF-7, compared to untreated control
[12] = MDA-MB-231, compared to control

EGFR, sequence (P00533 25-1210): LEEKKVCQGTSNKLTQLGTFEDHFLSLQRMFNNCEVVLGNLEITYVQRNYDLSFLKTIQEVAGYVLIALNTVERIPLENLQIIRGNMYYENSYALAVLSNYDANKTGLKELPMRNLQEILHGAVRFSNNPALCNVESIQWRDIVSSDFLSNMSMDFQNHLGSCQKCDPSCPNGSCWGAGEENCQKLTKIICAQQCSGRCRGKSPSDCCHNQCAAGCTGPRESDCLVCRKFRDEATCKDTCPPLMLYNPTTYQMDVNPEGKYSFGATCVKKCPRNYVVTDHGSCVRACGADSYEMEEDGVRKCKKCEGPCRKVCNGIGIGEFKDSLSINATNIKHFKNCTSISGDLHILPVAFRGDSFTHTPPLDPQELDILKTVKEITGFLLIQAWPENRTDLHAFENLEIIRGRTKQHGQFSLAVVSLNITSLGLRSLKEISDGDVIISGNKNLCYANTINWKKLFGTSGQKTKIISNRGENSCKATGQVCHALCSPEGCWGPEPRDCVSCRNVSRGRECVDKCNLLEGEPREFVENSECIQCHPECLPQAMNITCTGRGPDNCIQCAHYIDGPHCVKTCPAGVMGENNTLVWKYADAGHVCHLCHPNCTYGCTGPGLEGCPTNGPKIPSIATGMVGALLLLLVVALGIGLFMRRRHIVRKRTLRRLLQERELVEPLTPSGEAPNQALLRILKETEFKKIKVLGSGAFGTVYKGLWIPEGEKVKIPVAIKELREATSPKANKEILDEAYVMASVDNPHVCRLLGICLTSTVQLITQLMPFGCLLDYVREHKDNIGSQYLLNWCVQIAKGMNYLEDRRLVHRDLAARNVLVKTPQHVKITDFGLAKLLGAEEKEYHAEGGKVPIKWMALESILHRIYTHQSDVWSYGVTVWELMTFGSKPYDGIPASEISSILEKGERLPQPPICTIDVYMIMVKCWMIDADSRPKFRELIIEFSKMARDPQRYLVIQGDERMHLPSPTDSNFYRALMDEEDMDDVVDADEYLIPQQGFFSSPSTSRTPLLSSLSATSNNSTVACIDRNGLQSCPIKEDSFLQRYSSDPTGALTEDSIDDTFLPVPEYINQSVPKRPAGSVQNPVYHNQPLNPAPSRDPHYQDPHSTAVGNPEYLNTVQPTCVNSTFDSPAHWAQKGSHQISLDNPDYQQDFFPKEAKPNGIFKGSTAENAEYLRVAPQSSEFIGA

IC50 at 48 h (in vitro): 55 ± 2.68 µg/mL (≈ 186 µM)
IC50 (EGFR; [7]): 0.864 µM
IC50 (EGFR; EGFR inhibition IC50): 0.864 ± 0.054 µM
EGFR %inh (EGFR; conc 0.01 (unit not given)): 20%
EGFR %inh (EGFR; conc 0.1 (unit not given)): 41%
EGFR %inh (EGFR; conc 1 (unit not given)): 63%
EGFR %inh (EGFR; conc 10 (unit not given)): 84%
Percentage above Reference IC50 (potency relative to erlotinib) (EGFR; reference Erlotinib): 9.722%
IC50 (aromatase (ARO); ARO inhibition IC50): 0.216 ± 0.01 µM
IC50 (aromatase (ARO); Aromatase IC50, lab report 14-12-2020): 0.216 µM
inhibition at 10 pg/mL (aromatase (ARO); read-out: %inh): 37%
inhibition at 0.0001 µg/mL (aromatase (ARO); read-out: %inh): 54%
inhibition at 0.001 µg/mL (aromatase (ARO); read-out: %inh): 68%
inhibition at 0.01 µg/mL (aromatase (ARO); read-out: %inh): 89%
SMILES: O=C(OCc1cc(=O)oc2cc(O)ccc12)c1ccccc1 [Compound 2, (7-Hydroxy-2-oxo-2H-chromen-4-yl)methyl benzoate]
viability at 48 h, 0.4 ug (in vitro): 88%
viability at 48 h, 1.6 ug (in vitro): 77.2%
viability at 48 h, 6.25 ug (in vitro): 66.5%
viability at 48 h, 25 ug (in vitro): 57.6%
viability at 48 h, 100 ug (in vitro): 44.4%
IC50 (MCF-10A): 186 ± 2.68 µM
IC50 (MCF-7 [1]; MCF7, read-out: MCF-7 IC50): 6 ± 0.11 µM
IC50 (MCF-7 [1]; [8]): 1.78 ± 0.11 µg/mL
% viability (MCF-7 [1]; MCF7, 0.4ug): 58.765%
% viability (MCF-7 [1]; MCF7, 1.6ug): 52.469%
% viability (MCF-7 [1]; MCF7, 6.3ug): 41.79%
% viability (MCF-7 [1]; MCF7, 25ug): 32.963%
% viability (MCF-7 [1]; MCF7, 100ug): 21.0494%
IC50 (MDA-MB-231 [2]; [9]): 51.9 ± 0.84 µM
IC50 (MDA-MB-231 [2]; [10]): 15.4 ± 0.84 µg/mL
% viability (MDA-MB-231 [2]; 0.4ug (log conc. -0.41)): 75.87% and 75.875%
% viability (MDA-MB-231 [2]; 1.6ug (log conc. 0.19)): 65.56% and 65.561%
% viability (MDA-MB-231 [2]; 6.25ug (log conc. 0.8)): 57.358% and 57.36%
% viability (MDA-MB-231 [2]; 25ug (log conc. 1.4)): 47.527% and 47.53%
% viability (MDA-MB-231 [2]; 100ug (log conc. 2)): 36.5501% and 36.55%

IC50 at 48 h (in vitro): 35.8 ± 1.74 µg/mL (≈ 79.8 µM)
IC50 (EGFR; [7]): 1.1 µM
IC50 (EGFR; EGFR inhibition IC50): 1.1 ± 0.066 µM
EGFR %inh (EGFR; conc 10 (unit not given)): 83%
Percentage above Reference IC50 (potency relative to erlotinib) (EGFR; reference Erlotinib): 7.636%
SMILES: O=C(COc1ccc2c(COC(=O)c3ccccc3)cc(=O)oc2c1)c1ccc(Cl)cc1 [Compound 8, {7-[2-(4-Chlorophenyl)-2-oxoethoxy]-2-oxo-2H-chromen-4-yl}methyl benzoate]
viability at 48 h, 0.4 ug (in vitro): 84.7%
viability at 48 h, 1.6 ug (in vitro): 69.5%
viability at 48 h, 6.25 ug (in vitro): 63.2%
viability at 48 h, 25 ug (in vitro): 51.8%
viability at 48 h, 100 ug (in vitro): 43.6%
IC50 (MCF-10A): 79.9 ± 1.74 µM
IC50 (MCF-7 [1]; MCF7, read-out: MCF-7 IC50): 5.8 ± 0.16 µM
IC50 (MCF-7 [1]; [8]): 2.62 ± 0.16 µg/mL
% viability (MCF-7 [1]; MCF7, 0.4ug): 61.556%
% viability (MCF-7 [1]; MCF7, 1.6ug): 54.284%
% viability (MCF-7 [1]; MCF7, 6.3ug): 43.461%
% viability (MCF-7 [1]; MCF7, 25ug): 36.189%
% viability (MCF-7 [1]; MCF7, 100ug): 27.3957%
Bax Conc (Bax; MCF-7 cells): 0.164±0.0056^acd ng/ml
Apoptosis Late (MCF-7 [3]; MCF7): 19.66
Apoptosis Total (MCF-7 [3]; MCF7): 31.19
% Apoptosis Early (MCF-7 [3]; MCF-7): 4.94^abcA %
% Apoptosis Late (MCF-7 [3]; MCF-7): 19.66^acA %
% Apoptosis Total (MCF-7 [3]; MCF-7): 31.19% and 31.19^abc %
% Necrosis (MCF-7 [3]; MCF-7): 6.59%
Caspase-9 Conc. (Caspase-9; MCF-7 cells): 30.39±2.56^abc ng/ml
Bcl-2 Conc (Bcl-2; MCF-7 cells): 3.291±0.36^a ng/ml
IC50 (MDA-MB-231 [2]; [9]): 27.5 ± 0.67 µM
IC50 (MDA-MB-231 [2]; [10]): 12.3 ± 0.67 µg/mL
Comment (cell cycle phase of growth arrest) (MCF-7 [4]; MCF7): cell growth arrest@ G1/S
DNA content %G0-G1 (MCF-7 [4]; MCF7): 55.83%
DNA content %Pre-G1 (MCF-7 [4]; MCF7): 31.19%
DNA content %S (MCF-7 [4]; MCF7): 39.85%
%G0-G1 (MCF-7 [4]; MCF-7, IC50 concentration): 55.83^c ^ACD %
%Pre-G1 (MCF-7 [4]; MCF-7, IC50 concentration): 31.19^ae ^AB %
%S (MCF-7 [4]; MCF-7, IC50 concentration): 39.85 ^CE %
arrest in S phase (MCF-7 [4]; [11]): 1.33 folds
increase of apoptotic cells in pre-G1 phase (MCF-7 [4]; [11]): 18.67 folds

IC50 at 48 h (in vitro): 34.5 ± 1.68 µg/mL (≈ 72 µM)
IC50 (EGFR; EGFR IC50, lab report 01-09-2021, 04 compounds, reference Erlotinib): 0.177 µM
IC50 (EGFR; EGFR inhibition IC50): 0.177 ± 0.0018 µM
inhibition at 10 pg/mL (EGFR; read-out: EGFR %inh): 32%
inhibition at 0.0001 µg/mL (EGFR; read-out: EGFR %inh): 50%
inhibition at 0.001 µg/mL (EGFR; read-out: EGFR %inh): 73%
inhibition at 0.01 µg/mL (EGFR; read-out: EGFR %inh): 88%
Percentage above Reference IC50 (potency relative to erlotinib) (EGFR; reference Erlotinib): 81.92%
SMILES: COc1ccccc1C(=O)OCc1cc(=O)oc2cc(OCC(=O)c3ccc(Cl)cc3)ccc12 [Compound 12, {7-[2-(4-Chlorophenyl)-2-oxoethoxy]-2-oxo-2H-chromen-4-yl}methyl 2-methoxybenzoate]
viability at 48 h, 0.4 ug (in vitro): 81.4%
viability at 48 h, 1.6 ug (in vitro): 75.8%
viability at 48 h, 6.25 ug (in vitro): 62.5%
viability at 48 h, 25 ug (in vitro): 55%
viability at 48 h, 100 ug (in vitro): 39.6%
Apoptosis Early (MDA-MB-231 [5]; MDA): 16.75
Apoptosis Late (MDA-MB-231 [5]; MDA): 23.02
Apoptosis Total (MDA-MB-231 [5]; MDA): 46.28
Necrosis (MDA-MB-231 [5]; MDA): 6.51
% Apoptosis Early (MDA-MB-231 [5]; MDA-MB-231): 16.75^beg %
% Apoptosis Late (MDA-MB-231 [5]; MDA-MB-231): 23.02^eg %
% Apoptosis Total (MDA-MB-231 [5]; MDA-MB-231): 46.28% and 46.28^be %
% Necrosis (MDA-MB-231 [5]; MDA-MB-231): 6.51%
IC50 (MCF-10A): 72.1 ± 1.68 µM
IC50 (MCF-7 [1]; MCF7, read-out: MCF-7 IC50): 13.2 ± 0.38 µM
IC50 (MCF-7 [1]; [8]): 6.33 ± 0.38 µg/mL
% viability (MCF-7 [1]; MCF7, 0.4ug): 65.22%
% viability (MCF-7 [1]; MCF7, 1.6ug): 57.537%
% viability (MCF-7 [1]; MCF7, 6.3ug): 50.147%
% viability (MCF-7 [1]; MCF7, 25ug): 44.457%
% viability (MCF-7 [1]; MCF7, 100ug): 33.0205%
Bax Conc (Bax; MDA-MB-231 cells): 0.36±0.0118^cef ng/ml
Caspase-9 Conc. (Caspase-9; MDA-MB-231 cells): 19.16±0.41^df ng/ml
Bcl-2 Conc (Bcl-2; MDA-MB-231 cells): 2.934±0.154^be ng/ml
IC50 (MDA-MB-231 [2]; [9]): 3.5 ± 0.09 µM
IC50 (MDA-MB-231 [2]; [10]): 1.71 ± 0.09 µg/mL
% viability (MDA-MB-231 [2]; 0.4ug (log conc. -0.41)): 56.517%
% viability (MDA-MB-231 [2]; 1.6ug (log conc. 0.19)): 51.229%
% viability (MDA-MB-231 [2]; 6.25ug (log conc. 0.8)): 44.231%
% viability (MDA-MB-231 [2]; 25ug (log conc. 1.4)): 36.538%
% viability (MDA-MB-231 [2]; 100ug (log conc. 2)): 26.8697%
Comment (cell cycle phase of growth arrest) (MDA-MB-231 [6]; MDA): cell growth arrest@ G1/S
DNA content %G0-G1 (MDA-MB-231 [6]; MDA): 63.58%
DNA content %Pre-G1 (MDA-MB-231 [6]; MDA): 46.28%
DNA content %S (MDA-MB-231 [6]; MDA): 29.97%
%G0-G1 (MDA-MB-231 [6]; MDA-MB-231, IC50 concentration): 63.58^abc ^ADE %
%Pre-G1 (MDA-MB-231 [6]; MDA-MB-231, IC50 concentration): 46.28^cdg ^ABC %
%S (MDA-MB-231 [6]; MDA-MB-231, IC50 concentration): 29.97 ^BDF %
cell cycle arrest at S phase (MDA-MB-231 [6]; [12]): 1.08 folds
increase of apoptotic cells in pre-G1 phase (MDA-MB-231 [6]; [12]): 22.46 folds
